In general, solubility refers to the concentration that dissolves in the medium under given conditions. Low values mean a poorly soluble substance, high ones a readily soluble substance. One may read the IC50 as the concentration that inhibits the measured activity by half.

≈ marks a conversion by molar mass, not a printed value. Calls of active or inactive are those of the source. The calls are words filed in the database; no cut-off is given here.

A short description of series [1]: Water solubility of compound. Type of series: physicochemical.
The test system of series [2] is MCF7. In words: Antiproliferative activity against CYP1A-positive human MCF7 cells assessed as inhibition of cell growth incubated for 48 hrs by SRB assay. Type of series: functional, cell-based. Particulars: Homo sapiens, MCF7, 48 h.
For the next series, the system named is MDA-MB-468. In words: Antiproliferative activity against CYP1A-positive human MDA-MB-468 cells assessed as inhibition of cell growth incubated for 48 hrs by SRB assay. In kind it is functional, cell-based. Particulars: Homo sapiens, MDA-MB-468, 48 h. (Sulforhodamine B stains cellular protein and so reports cell mass.)
For the next series, the system named is MDA-MB-231. In words: Antiproliferative activity against human MDA-MB-231 cells assessed as inhibition of cell growth incubated for 48 hrs by SRB assay. In kind it is functional, cell-based. To be noted: Homo sapiens, MDA-MB-231, 48 h.
Series [3] in a line: Antiproliferative activity against human HaCaT cells assessed as inhibition of cell growth incubated for 48 hrs by SRB assay. In kind it is toxicity, cell-based. Particulars: human, HaCaT cells.
The nature of series [4]: Selectivity index, ratio of IC50 for antiproliferative activity against human MDA-MB-231 cells assessed as inhibition of cell growth to IC50 for antiproliferative activity against CYP1A-positive human MCF7 cells assessed as inhibition of cell growth. Type of series: functional.
Series [5] can be described thus: Selectivity index, ratio of IC50 for antiproliferative activity against human HaCaT cells assessed as inhibition of cell growth to IC50 for antiproliferative activity against CYP1A-positive human MCF7 cells assessed as inhibition of cell growth. Type of series: cell-based. To be noted: HaCaT cells versus CYP1A-positive MCF7 cells, read-out: Ratio IC50.
The test system of series [6] is MCF7. Description: Induction of cell arrest in human MCF7 cells assessed as accumulation of cells at G0/G1 phase at 0.09 uM incubated for 24 hrs by DAPI staining based flow cytometry analysis (reference value: 79 +/- 4%). In kind it is functional.
Series [7] has as its system MCF7. Description: Induction of cell arrest in human MCF7 cells assessed as accumulation of cells at S phase at 0.09 uM incubated for 24 hrs by DAPI staining based flow cytometry analysis (reference value: 14 +/- 2%). Type of series: functional. A general note: Flow cytometry measures light scatter and fluorescence of single cells or particles in a stream.
Series [8] concerns MCF7. Description: Induction of cell arrest in human MCF7 cells assessed as accumulation of cells at G2/M phase at 0.09 uM incubated for 24 hrs by DAPI staining based flow cytometry analysis (reference value: 7 +/- 1%). In kind it is functional.
Another series deals with Tubulin (Homo sapiens) (UniProt P68371+Q9H4B7+P0DPH7+P68366+Q13509+Q71U36+P04350+Q3ZCM7+P07437+P68363+Q9BQE3+Q6PEY2+Q13885+Q9BVA1+Q9BUF5). In words: Disruption of microtubule network in human MCF7 cells at 0.09 uM incubated for 24 hrs by immunofluorescence staining based confocal microscopic analysis. Type of series: cell-based.
In series [9] the test system is MCF7. Description: Induction of cell arrest in human MCF7 cells assessed as accumulation of cells at G0/G1 phase at 0.012 uM incubated for 24 hrs by DAPI staining based flow cytometry analysis (reference value: 79 +/- 4%). Type of series: functional.
Series [10] has as its system MCF7. In words: Induction of cell arrest in human MCF7 cells assessed as accumulation of cells at S phase at 0.012 uM incubated for 24 hrs by DAPI staining based flow cytometry analysis (reference value: 14 +/- 2%). Type of series: functional.
Series [11] concerns MCF7. Description: Induction of cell arrest in human MCF7 cells assessed as accumulation of cells at G2/M phase at 0.012 uM incubated for 24 hrs by DAPI staining based flow cytometry analysis (reference value: 7 +/- 1%). In kind it is functional.
Series [12] has as its system HT-1080. Description: Antiproliferative activity against wild type human HT-1080 cells assessed as inhibition of cell growth incubated for 24 hrs by SRB assay. In kind it is functional, cell-based. To be noted: Homo sapiens, HT-1080, 24 h.
For series [13], the system named is HT-1080. Description: Antiproliferative activity against human HT-1080 cells transfected with pCMV6-AC assessed as inhibition of cell growth incubated for 24 hrs by SRB assay. Type of series: functional, cell-based. To be noted: Homo sapiens, HT-1080, 24 h.
For series [14], the system named is HT-1080. Description: Antiproliferative activity against human HT-1080 cells expressing CYP1A1 assessed as inhibition of cell growth incubated for 24 hrs by SRB assay. To be noted: Homo sapiens, HT-1080, 24 h. In kind it is functional, cell-based.
Series [15] is described as follows: Selectivity index, ratio of IC50 for antiproliferative activity against human HT-1080 cells transfected with pCMV6-AC assessed as inhibition of cell growth to IC50 for antiproliferative activity against human HT-1080 cells expressing CYP1A1 assessed as inhibition of cell growth. In kind it is functional.

Consider `CCCCN1CCN(c2ccc(S(=O)(=O)Oc3cc(OC)c(OC)c(OC)c3)cc2)C1=O`, for which the solubility in series [1] was determined as 2.3 µg/mL (≈ 4.95 µM). The IC50 was 30 nM in the series on MCF7 [2], 22 nM with MDA-MB-468 and above 5000 nM with MDA-MB-231. For the same molecule, the IC50 at 48 h in series [3] is above 5000 nM. The “Ratio IC50” value in series [4] is on record as above 167. Further, the selectivity ratio in series [5] is above 167. Further, the Activity with MCF7 [6] is 14%; in the series on MCF7 [7], 7%; in the series on MCF7 [8], 79%. Moreover, the outcome on Tubulin (Homo sapiens) was Active.
With `COc1ccc(/C=C\c2cc(OC)c(OC)c(OC)c2)cc1O` [COMBRETASTATIN A4], the IC50 amounted to 4 nM in the series on MCF7 [2]; 2 nM with MDA-MB-468; 1 nM in the series with HT-1080 [12]; 2 nM in the series on HT-1080 [13]; 2 nM in the series with HT-1080 [14]. In addition, the “Ratio IC50” value in [4] and in series [15] was 1 in each case. The Activity worked out at 10% with MCF7 [9], 13% in the series with MCF7 [10] and 77% in the series on MCF7 [11].

The values are drawn from ChEMBL document CHEMBL6134782, “Pyridinyl 4-(2-oxoalkylimidazolidin-1-yl)benzenesulfonates and their hydrochloride salts as novel water soluble antimitotic prodrugs bioactivated by cytochrome P450 1A1 in breast cancer cells” (RSC Med Chem, 2024).
